Earlier results on one substance are cited in publication PMC3178464 (Bioorganic & medicinal chemistry, 2009).

In this series the test system is ER.

Regarding 17α-ethynylestradiol [EE2], the “affinity for ER relative to E2” value is recorded as “nearly three-fold higher affinity”.
